The target in one assay is human Gal-3 (hGal-3) (Homo sapiens (Human), UniProt P17931). Description: Competitive binding assay: binding of biotinylated hGal-3 to microplate-adsorbed asialofetuin (ASF). Particulars: Activity on hGal-3; mean values of several measurements. A digest of the protocol:
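Spectrophotometric readout (streptavidin-peroxidase, ABTS) of biotinylated galectin retained on ASF-coated wells. Biotinylated hGal-1 or hGal-3, 300-1000 ng/mL, co-incubated with test compound 3 h at 4° C, then washed. Mean IC50 from repeat runs.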

In a further assay the target is human Gal-1 (hGal-1). Description: Competitive binding assay: binding of biotinylated hGal-1 to microplate-adsorbed asialofetuin (ASF). Conditions: Activities on hGal-1; mean values of several measurements. A digest of the protocol:
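For hGal-1, a variant with all six cysteines replaced by serines is preferred. Either galectin, biotinylated at 300-1000 ng/mL, competes with compound for microplate-bound ASF over 3 h at 4° C; peroxidase/ABTS detection gives IC50, averaged.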

Each structure is given as a SMILES string.

Sequence of human Gal-1 (hGal-1) (P09382 2-135 limits assumed): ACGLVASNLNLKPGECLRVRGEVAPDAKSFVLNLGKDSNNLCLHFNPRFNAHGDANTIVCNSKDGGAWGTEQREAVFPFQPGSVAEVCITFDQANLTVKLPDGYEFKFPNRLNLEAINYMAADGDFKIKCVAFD
Sequence of human Gal-3 (hGal-3) (P17931 whole entry): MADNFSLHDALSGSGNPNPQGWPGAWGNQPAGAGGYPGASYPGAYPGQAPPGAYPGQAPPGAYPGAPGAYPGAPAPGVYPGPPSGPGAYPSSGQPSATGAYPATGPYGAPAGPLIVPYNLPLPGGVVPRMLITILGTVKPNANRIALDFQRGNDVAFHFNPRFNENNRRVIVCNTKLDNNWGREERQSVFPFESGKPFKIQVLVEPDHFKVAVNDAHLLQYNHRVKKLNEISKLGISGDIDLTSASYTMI

On to `CC(C)(C)OC(=O)N1CCC(C2=NOC(C[C@H]3O[C@H](CO)[C@H](O)[C@H](n4cc(-c5ccc(Cl)c(F)c5F)nn4)[C@H]3O)C2)CC1` (stereo partly drawn) [Ex 1.102], for which the IC50 (in general, the concentration that gives 50% inhibition) on human Gal-3 (hGal-3) worked out at 82 nM; at human Gal-1 (hGal-1) it was 2370 nM.

Turning to `CO[C@@H]1[C@@H](n2cc(-c3cc(F)c(F)c(F)c3)nn2)[C@@H](O)[C@@H](CO)O[C@@H]1Cc1cc(C2CCC(F)(F)CC2)on1` [Ex 1.79], the results for the IC50 at human Gal-3 (hGal-3) and on human Gal-1 (hGal-1) were 270 nM and 4240 nM, respectively.

Take `Cc1ncsc1C1CC(C[C@H]2O[C@H](CO)[C@H](O)[C@H](n3cc(-c4cc(F)c(F)c(F)c4)nn3)[C@H]2O)=NO1` (stereo partly drawn) [Ex 1.37]: the figures for the IC50 at human Gal-3 (hGal-3) and at human Gal-1 (hGal-1) were 440 nM and 7700 nM, respectively.

For the compound `CO[C@@H]1[C@@H](n2cc(-c3ccc(Cl)c(F)c3)nn2)[C@@H](O)[C@@H](CO)O[C@@H]1Cc1cc(C2CCOCC2)on1` [Ex 1.183], the IC50 was 280 nM at human Gal-3 (hGal-3) and 5290 nM at human Gal-1 (hGal-1).

For `CO[C@@H]1[C@@H](n2cc(-c3cc(F)c(F)c(F)c3)nn2)[C@@H](O)[C@@H](CO)O[C@@H]1C[C@@H]1CN(C2CCN([S@+]([O-])C(C)(C)C)CC2)C(=O)O1` (mixture of isomers) [Example 5.21, (RS)-3-((RS)-1-(tert-butylsulfinyl)piperidin-4-yl)-5-(((2R,3R,4S,5R,6R)-5-hydroxy-6-(hydroxymethyl)-3-methoxy-4-(4-(3,4,5-trifluorophenyl)-1H-1,2,3-triazol-1-yl)tetrahydro-2H-pyran-2-yl)methyl)oxazolidin-2-one], the concentration for half-maximal inhibition (IC50) was found to be 350 nM at human Gal-3 (hGal-3) and 8680 nM on human Gal-1 (hGal-1).

Turning to `CO[C@@H]1[C@@H](n2cc(-c3cccc(F)c3F)nn2)[C@@H](O)[C@@H](CO)O[C@@H]1Cc1cc(C(C)(C)C)on1` [Ex 1.351], the half-maximal inhibitory concentration (IC50) is 180 nM on human Gal-3 (hGal-3) and 1050 nM on human Gal-1 (hGal-1).

Regarding `CO[C@@H]1[C@@H](n2cc(-c3cc(F)c(F)c(F)c3)nn2)[C@@H](O)[C@@H](CO)O[C@@H]1Cc1cc(C2CCN(C(=O)OC(C)(C)C)C2)on1` (stereo partly drawn) [Ex 1.70], the 50% inhibitory concentration (IC50) on human Gal-3 (hGal-3) was 1980 nM; on human Gal-1 (hGal-1), 12600 nM.

As to `CO[C@@H]1[C@@H](n2cc(-c3cc(F)c(C)c(F)c3)nn2)[C@@H](O)[C@@H](CO)O[C@@H]1Cc1cc(C2CCN(S(C)(=O)=O)CC2)on1` [Ex 1.152], the figures for the IC50 on human Gal-3 (hGal-3) and on human Gal-1 (hGal-1) were 39 nM and 1510 nM, respectively.

`CO[C@@H]1[C@@H](n2cc(-c3cc(F)c(F)c(F)c3)nn2)[C@@H](O)[C@@H](CO)O[C@@H]1C[C@H]1CN(C2CCN(C(=O)C(C)C)CC2)C(=O)O1` [Example 5.12, (S)-5-(((2R,3R,4S,5R,6R)-5-hydroxy-6-(hydroxymethyl)-3-methoxy-4-(4-(3,4,5-trifluorophenyl)-1H-1,2,3-triazol-1-yl)tetrahydro-2H-pyran-2-yl)methyl)-3-(1-isobutyrylpiperidin-4-yl)oxazolidin-2-one]: the half-maximal inhibitory concentration (IC50) on human Gal-3 (hGal-3) stood at 130 nM; on human Gal-1 (hGal-1) it was 1000 nM.

Turning to `CO[C@@H]1[C@@H](n2cc(-c3cc(F)cc(Cl)c3)nn2)[C@@H](O)[C@@H](CO)O[C@@H]1Cc1cc(C(C)(C)C)on1` [Ex 1.196], the IC50 is 400 nM at human Gal-3 (hGal-3) and 2430 nM at human Gal-1 (hGal-1).

Consider `CO[C@@H]1[C@@H](n2cc(-c3cc(F)c(F)c(F)c3)nn2)[C@@H](O)[C@@H](CO)O[C@@H]1CC1=NOC(C2CCN(C(=O)OC(C)(C)C)CC2)C1` (stereo partly drawn) [Ex 1.67], for which the IC50 at human Gal-3 (hGal-3) is 430 nM; at human Gal-1 (hGal-1), 3080 nM.

Turning to `CO[C@@H]1[C@@H](n2cc(-c3cc(F)c(F)c(F)c3)nn2)[C@@H](O)[C@@H](CO)O[C@@H]1Cc1cc(C2CCC(F)(F)CC2)sn1` [Example 6.01, (2R,3R,4S,5R,6R)-6-((5-(4,4-difluorocyclohexyl)isothiazol-3-yl)methyl)-2-(hydroxymethyl)-5-methoxy-4-(4-(3,4,5-trifluorophenyl)-1H-1,2,3-triazol-1-yl)tetrahydro-2H-pyran-3-ol], the results for the IC50 at human Gal-3 (hGal-3) and on human Gal-1 (hGal-1) were 560 nM and 6380 nM, respectively.

As for `CO[C@@H]1[C@@H](n2cc(-c3cc(F)c(F)c(F)c3)nn2)[C@@H](O)[C@@H](CO)O[C@@H]1CC1CC(C2CCN(C(=O)OC(C)(C)C)CC2)=NO1` (stereo partly drawn) [Ex 1.46], the half-inhibitory concentration (IC50) came to 290 nM at human Gal-3 (hGal-3) and 1000 nM at human Gal-1 (hGal-1).

With `CO[C@@H]1[C@@H](n2cc(-c3cc(F)c(F)c(F)c3)nn2)[C@@H](O)[C@@H](CO)O[C@@H]1Cc1cc(C2(C)CC2)no1` [Ex 1.215], the IC50 on human Gal-3 (hGal-3) was 100 nM; at human Gal-1 (hGal-1), 610 nM.

As to `CCOC(=O)N1CCC(c2cc(C[C@H]3O[C@H](CO)[C@H](O)[C@H](n4cc(-c5cc(F)cc(Cl)c5)nn4)[C@H]3OC)no2)CC1` [Ex 1.200], the values for the IC50 at human Gal-3 (hGal-3) and on human Gal-1 (hGal-1) were 120 nM and 1510 nM, respectively.

For `CO[C@@H]1[C@@H](n2cc(-c3ccc(F)c(F)c3F)nn2)[C@@H](O)[C@@H](CO)O[C@@H]1Cc1cc(C2(C)CCCC2)on1` [Ex 1.273], the IC50 at human Gal-3 (hGal-3) worked out at 66 nM; at human Gal-1 (hGal-1), 720 nM.

As for `CO[C@@H]1[C@@H](n2cc(-c3cc(F)c(F)c(Cl)c3)nn2)[C@@H](O)[C@@H](CO)O[C@@H]1Cc1cc(C(C)(C)C)on1` [Ex 1.221], the 50% inhibitory concentration (IC50) on human Gal-3 (hGal-3) amounted to 160 nM; on human Gal-1 (hGal-1), 980 nM.

For `CO[C@@H]1[C@@H](n2cc(-c3ccc(C)c(F)c3F)nn2)[C@@H](O)[C@@H](CO)O[C@@H]1Cc1cc(C2(O)CCCCC2)on1` [Ex 1.238], the 50% inhibitory concentration (IC50) was determined as 45 nM at human Gal-3 (hGal-3) and 3740 nM at human Gal-1 (hGal-1).

Turning to `CO[C@@H]1[C@@H](n2cc(-c3cc(F)c(F)c(F)c3)nn2)[C@@H](O)[C@@H](CO)O[C@@H]1Cc1cc(C2CCN(C(=O)NC(C)(C)C)CC2)on1` [Example 3.52, N-(tert-butyl)-4-(3-(((2R,3R,4S,5R,6R)-5-hydroxy-6-(hydroxymethyl)-3-methoxy-4-(4-(3,4,5-trifluorophenyl)-1H-1,2,3-triazol-1-yl)tetrahydro-2H-pyran-2-yl)methyl)isoxazol-5-yl)piperidine-1-carboxamide], the IC50 at human Gal-3 (hGal-3) is 31 nM; at human Gal-1 (hGal-1) it was 230 nM.

For `CO[C@@H]1[C@@H](n2cc(-c3cc(F)c(F)c(F)c3)nn2)[C@@H](O)[C@@H](CO)O[C@@H]1Cc1cc(C2CCN(C(=O)C3CCCC3)CC2)on1` [Example 3.49, cyclopentyl(4-(3-(((2R,3R,4S,5R,6R)-5-hydroxy-6-(hydroxymethyl)-3-methoxy-4-(4-(3,4,5-trifluorophenyl)-1H-1,2,3-triazol-1-yl)tetrahydro-2H-pyran-2-yl)methyl)isoxazol-5-yl)piperidin-1-yl)methanone], the IC50 on human Gal-3 (hGal-3) was 57 nM; on human Gal-1 (hGal-1) it was 530 nM.

As for `CO[C@@H]1[C@@H](n2cc(-c3cc(F)c(F)c(F)c3)nn2)[C@@H](O)[C@@H](CO)O[C@@H]1Cc1cc(C2CCCCC2)on1` [Ex 1.65], the results for the 50% inhibitory concentration (IC50) at human Gal-3 (hGal-3) and on human Gal-1 (hGal-1) were 560 nM and 14100 nM, respectively.

`CC(=O)O[C@@H]1[C@@H](n2cc(-c3cc(F)c(F)c(F)c3)nn2)[C@@H](O)[C@@H](CO)O[C@@H]1Cc1cc(C2CCNCC2)on1` [Example 3.15, (2R,3R,4S,5R,6R)-5-hydroxy-6-(hydroxymethyl)-2-((5-(piperidin-4-yl)isoxazol-3-yl)methyl)-4-(4-(3,4,5-trifluorophenyl)-1H-1,2,3-triazol-1-yl)tetrahydro-2H-pyran-3-yl acetate]: the IC50 worked out at 140 nM at human Gal-3 (hGal-3) and 13600 nM at human Gal-1 (hGal-1).

Take `CCOC(=O)N1CCC(c2cc(C[C@H]3O[C@H](CO)[C@H](O)[C@H](n4cc(-c5ccc(Br)c(F)c5F)nn4)[C@H]3OC)no2)CC1` [Ex 1.198]: the IC50 on human Gal-3 (hGal-3) stood at 47 nM; on human Gal-1 (hGal-1) it was 3590 nM.

With `CC(=O)O[C@@H]1[C@@H](n2cc(-c3cc(F)c(F)c(F)c3)nn2)[C@@H](O)[C@@H](CO)O[C@@H]1CC1=NO[C@@H](C2CCN(C(C)=O)CC2)C1` [Example 3.24, (2R,3R,4S,5R,6R)-2-(((R)-5-(1-acetylpiperidin-4-yl)-4,5-dihydroisoxazol-3-yl)methyl)-5-hydroxy-6-(hydroxymethyl)-4-(4-(3,4,5-trifluorophenyl)-1H-1,2,3-triazol-1-yl)tetrahydro-2H-pyran-3-yl acetate], the IC50 came to 340 nM on human Gal-3 (hGal-3) and 9190 nM at human Gal-1 (hGal-1).

Regarding `CC(C)(C)c1cc(C[C@H]2O[C@H](CO)[C@H](O)[C@H](n3cc(-c4cc(F)c(F)c(F)c4)nn3)[C@H]2OCC(=O)N2CC(O)C2)no1` [Example 2.40, 2-(((2R,3R,4S,5R,6R)-2-((5-(tert-butyl)isoxazol-3-yl)methyl)-5-hydroxy-6-(hydroxymethyl)-4-(4-(3,4,5-trifluorophenyl)-1H-1,2,3-triazol-1-yl)tetrahydro-2H-pyran-3-yl)oxy)-1-(3-hydroxyazetidin-1-yl)ethan-1-one], the IC50 at human Gal-3 (hGal-3) worked out at 130 nM; at human Gal-1 (hGal-1) it was 4580 nM.

In the case of `CO[C@@H]1[C@@H](n2cc(-c3ccc(C)c(F)c3F)nn2)[C@@H](O)[C@@H](CO)O[C@@H]1Cc1cc(C2(CO)CC2)on1` [Ex 1.324], the IC50 at human Gal-3 (hGal-3) was determined as 140 nM; at human Gal-1 (hGal-1) it was 3570 nM.

For `CO[C@@H]1[C@@H](n2cc(-c3ccc4ccccc4c3)nn2)[C@@H](O)[C@@H](CO)O[C@@H]1CC1CC(C2CCN(C(=O)OC(C)(C)C)CC2)=NO1` (stereo partly drawn) [Ex 1.304], the results for the half-maximal inhibitory concentration (IC50) at human Gal-3 (hGal-3) and on human Gal-1 (hGal-1) were 1620 nM and 3910 nM, respectively.

With `OC[C@H]1O[C@H](C[C@@H]2CC(C3CCCCC3)=NO2)[C@H](O)[C@@H](n2cc(-c3cc(F)c(F)c(F)c3)nn2)[C@H]1O` [Ex 1.07], the results for the IC50 at human Gal-3 (hGal-3) and on human Gal-1 (hGal-1) were 520 nM and 4900 nM, respectively.

Regarding `CO[C@@H]1[C@@H](n2cc(-c3cc(F)c(F)c(F)c3)nn2)[C@@H](O)[C@@H](CO)O[C@@H]1Cc1cc(C2(C#N)CCCC2)no1` [Ex 1.290], the IC50 came out at 270 nM on human Gal-3 (hGal-3) and 2120 nM at human Gal-1 (hGal-1).

As for `CO[C@@H]1[C@@H](n2cc(-c3cc(F)cc(F)c3)nn2)[C@@H](O)[C@@H](CO)O[C@@H]1CC1CC(C2CCN(C(=O)OC(C)(C)C)CC2)=NO1` (stereo partly drawn) [Ex 1.118], the IC50 on human Gal-3 (hGal-3) was 330 nM; at human Gal-1 (hGal-1), 1470 nM.

The values are drawn from patent US12319672B2, “Alpha-D-galactopyranoside derivatives” (Idorsia Pharmaceuticals Ltd, priority 2019, dated 2025).
